{
  "source": "patent US20250255876A1",
  "about": "“COMPOSITIONS AND METHODS FOR CANCER TREATMENT” (ARIEL SCIENTIFIC INNOVATIONS LTD., priority 2021, published 2025)",
  "key": {"[1]": {"tested_on": "γH2AX foci in A549 cells", "experiment": "γH2AX foci immunofluorescence, A549 cells", "format": "cell-based", "settings": "for cells with more than 80 foci or very bright signal, combined treatment / number of γH2AX foci/cell, combined treatment: A549, 10 μM cisplatin + 50 μM compound; for number of γH2AX foci/cell, combined treatment: overnight", "procedure": "(§1) H1975 and A549 cells were grown on glass coverslips in 12-well plates with the appropriate media, and fixed in 4% paraformaldehyde for 10 minutes at room temperature. Cells were permeabilizedin 0.5% TritonX100 in PBS×1 for 10 minutes at room temperature and then blocked in 5% BSA in 0.1% PBS×1-Tween for 1 hour at room temperature. Anti-phospho-Histone H2A.X primary antibody ([…]; 05-636-25UG) diluted 1:400 in 5% BSA in 0.1% PBS×1-Tween was added for 1 hour at room temperature. Fluorescent-dye conjugated secondary antibody was applied for 1 hour at room temperature. The coverslips were washed between each step with PBS×1. Nuclei were stained with DAPI (1:2000 dilution) at room temperature in the dark for 3 minutes. Coverslips were mounted on glass slides and imaged using an Olympus 1×81 microscope. For all treatments, cells with fewer than 80 foci were scored manually (FIG. 4B), and cells with more than 80 foci and very bright signals were scored automatically by using the “Analyze Particles” function in ImageJ (National Institutes of Health) after setting a suitable threshold.\n(§2) Next, the inventors examined whether combined treatment of cisplatin with c #2 or c #3 correlates with an increase in DNA damage, which might explain the compound's sensitization effect. A549 and H1975 cell lines were exposed to combined overnight treatment with cisplatin and c #2 or c #3, and the levels of γH2AX foci were monitored. In both cell lines, a clear increase in the number of foci was observed after combined treatment, compared to cells treated with cisplatin or compounds alone (FIG. 12A).\n(§3) Combined treatment of cisplatin with c #3 correlates with an increase in DNA damage. Levels of γ-H2AX foci, a marker for DNA double-strand breaks, were compared in H1975, A549 and B16F10 cell lines."}, "[2]": {"tested_on": "γH2AX foci in H1975 cells", "experiment": "γH2AX foci immunofluorescence, H1975 cells", "format": "cell-based, human", "settings": "for number of γH2AX foci/cell, combined treatment: overnight", "procedure": "as §1, §2, §3"}, "[3]": {"tested_on": "H1975 cells", "experiment": "Colony survival assay, H1975 cells", "format": "cell-based", "settings": "for survival rate, combined treatment: H1975, 5 μM cisplatin + 50 μM compound; for toxicity / cell viability, compound alone: H1975, 50 μM compound alone; for sensitization effect to cisplatin: H1975, cisplatin + 50 μM compound; for sensitization to doxorubicin: H1975, doxorubicin + 50 μM compound, 48 h; for cell survival with cisplatin plus inhibitor: H1975, varying cisplatin, 48 hours", "procedure": "H1975 cells were plated in 24-well plates at 50,000 cells/well (for 50 µM inhibitor treatment) or 20,000 cells/well (for […] inhibitor treatment). U2OS and A549 cells were plated in 24-well plates at 5000 cells/well. The next day, cells were treated with varying concentrations of cisplatin, either with or without added inhibitor compound. After 48 hours of cisplatin+compound treatment, the cells were washed 3 times with PBS×1 and fresh media applied. After 4 days of recovery, the cells were stained with methylene blue and imaged using a Nikon SMZ25 stereomicroscope. The images were analyzed using the ImageJ (National Institutes of Health) area measurement tool to quantify total colony size in each well.\nCells were plated in 24-well plates at 50,000 cells/well (H1975 line) or 10,000 cells/well (A549 line). The next day, cells were treated with varying concentrations of cisplatin ([…]), with or without 50 μM compound. For the untreated control wells containing only cisplatin, DMSO was applied in place of the compound. After 48 hours of cisplatin+compound treatment, the cells were washed 3 times with PBS and fresh media was applied. After 4 days of recovery, the cells were stained with methylene blue and imaged using a Nikon SMZ25 stereomicroscope. The images were analyzed using the ImageJ (National Institutes of Health) area measurement tool to quantify total colony size in each well.\nIn order to assess the ability of the selected compounds to sensitize cells during cisplatin treatment, the inventors established a colony survival assay comparing the viability of cells treated with cisplatin alone or with combined treatment of cisplatin and 50 μM compound. For the compound screen, we used two lung cancer cell lines: human non-small lung carcinoma H1975 cells, and epithelial lung adenocarcinoma A549 cells. Out of ten compounds tested, compounds c #2 and c #3 were identified with the most significant sensitization effect and were chosen for future characterization. […] Survival rate was reduced from 90% in 5 μM cisplatin treatment to 50% survival in the combined treatment (FIGS. 11A-B). H1975 cells presented similar behavior following doxorubicin treatment (FIG. 11C). IC50 was calculated using linear regression, presenting a clear reduction of cisplatin's IC50 in all treatments."}, "[4]": {"target": "MAD2L2 (Homo sapiens, UniProt Q9UI95)", "sequence (Q9UI95 whole entry)": "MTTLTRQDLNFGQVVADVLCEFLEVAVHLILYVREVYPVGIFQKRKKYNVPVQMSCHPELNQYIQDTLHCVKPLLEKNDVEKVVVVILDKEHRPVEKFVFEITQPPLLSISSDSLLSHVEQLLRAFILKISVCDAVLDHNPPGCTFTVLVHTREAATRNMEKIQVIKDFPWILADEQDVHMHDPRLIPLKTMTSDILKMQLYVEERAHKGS", "experiment": "Cellular thermal shift assay (CETSA) in 293T cells", "format": "cell-based", "settings": "50 μM, 1 hour", "procedure": "The in vivo binding of MAD2L2 to the small molecule compounds was detected using the cellular thermal shift assay (CETSA), following their standard protocol. Briefly, 293T cells were grown to confluency and treated for 1 hour with the DMSO or selected compounds at 50 µM. Cells were collected and centrifuged for 3 min at 300 g, washed once with PBS, and each pellet was resuspended in 1 ml of PBS supplemented with Merck® 1000×protease inhibitor (539134). The cell suspensions were aliquoted and incubated for 3 min in the VWR XT96 thermal cycler using a gradient from 40°−55° C. Following heating, the tubes were incubated at room temperature for 3 min and then snap frozen in liquid nitrogen. The samples were then lysed via two subsequent freeze-thaw cycles with vortexing, and the lysates were centrifuged at 20,000 g for 20 min at 4° C. Finally, the cleared lysates were boiled in Laemmli buffer for 5 minutes.\nIn order to validate that MAD2L2 is a direct target of c #2 and c #3, the inventors tested the compounds' binding kinetics to a recombinant protein by Field Effect Biosensing (FEB) technology. Briefly, purified GST-MAD2L2 was immobilized onto a […] chip, and the current across the chip is measured to determine the baseline current. Then, a soluble compound was flowed over the chip. Interaction of the soluble and immobilized molecules yields a detectable change in conductance of the biosensor. The Kon and Koff of the interaction were measured over time and were used to calculate the KD. The binding of both c #2 and c #3 to MAD2L2 is in the micromolar range: 31.08 μM and 44.88 μM, respectively (FIG. 13A). […] The in vivo binding of c #2 or c #3 to MAD2L2 was validated by using a cellular thermal shift assay (CETSA), which is a reliable reporter showing whether a molecule enters the cell and the nucleus and binds to the protein of interest. Briefly, under normal conditions, most of the MAD2L2 protein unfolds, aggregates and disappears from the soluble fraction of the lysate between 46° C. and 49° C. […]"}, "[5]": {"settings": "H1975, 5 μM cisplatin + 50 μM compound"}},
  "note": "Entries after “also recorded” stand apart in the source; their conditions may differ.",
  "data": [
    {"smiles": "CNc1nc(N2CCCCC2)nc(-n2cnc(SCC(N)=O)n2)n1", "note": "[Compound 2]", "values": [
      {"measurement": "cells with more than 80 foci or very bright signal, combined treatment", "setting": "[1]", "result": "significantly more abundant"},
      {"measurement": "number of γH2AX foci/cell, combined treatment", "setting": "[1]", "result": "significant increase in the number of γH2AX foci/cell"},
      {"measurement": "number of γH2AX foci/cell, combined treatment", "setting": "[2]; [5]", "result": "significant increase in the number of γH2AX foci/cell"},
      {"measurement": "survival rate, combined treatment", "setting": "[3]", "result": 50, "unit": "%"},
      {"measurement": "toxicity / cell viability, compound alone", "setting": "[3]", "result": "no reduction in cell viability"},
      {"measurement": "toxicity / cell viability, compound alone", "setting": "[3]; listed as c #2", "result": "caused no toxicity"},
      {"measurement": "sensitization effect to cisplatin", "setting": "[3]", "result": "approximately twofold sensitization effect"},
      {"measurement": "sensitization to doxorubicin", "setting": "[3]", "result": "sensitized"},
      {"measurement": "cell survival with cisplatin plus inhibitor", "setting": "[3]", "result": "reduction in cell survival"},
      {"measurement": "stabilization of folded MAD2L2 (in words)", "setting": "[4]", "result": "stabilize the folded MAD2L2 protein"},
      {"measurement": "MAD2L2 aggregation temperature", "setting": "[4]; normal conditions between 46° C. and 49° C.", "result": "milder change in MAD2L2's aggregation temperature"}
    ]},
    {"smiles": "Cc1oc(-c2ccco2)nc1CC(=O)N[C@@H](C(=O)O)c1ccccc1", "note": "[Compound 3]", "values": [
      {"measurement": "increase in γ-H2AX foci/cell in co-treated cells", "setting": "[1]; A549, 10 μM cisplatin + 50 μM c #3, 16 h", "result": 2, "unit": "fold"},
      {"measurement": "cells with more than 80 foci or very bright signal, combined treatment", "setting": "[1]", "result": "significantly more abundant"},
      {"measurement": "number of γH2AX foci/cell, combined treatment", "setting": "[1]", "result": "significant increase in the number of γH2AX foci/cell"},
      {"measurement": "γ-H2AX signal, c #3 alone", "setting": "[1]; A549, c #3 alone", "result": "no effect on the γ-H2AX signal"},
      {"measurement": "increase in γ-H2AX foci/cell in co-treated cells", "setting": "[2]; H1975, 5 μM cisplatin + 50 μM c #3, 16 h", "result": 2, "unit": "fold"},
      {"measurement": "cells with more than 80 foci or very bright signal, combined treatment", "setting": "[2]; [5]", "result": "significantly more abundant"},
      {"measurement": "number of γH2AX foci/cell, combined treatment", "setting": "[2]; [5]", "result": "significant increase in the number of γH2AX foci/cell"},
      {"measurement": "γ-H2AX signal, c #3 alone", "setting": "[2]; H1975, c #3 alone", "result": "no effect on the γ-H2AX signal"},
      {"measurement": "survival rate, combined treatment", "setting": "[3]", "result": 50, "unit": "%"},
      {"measurement": "toxicity / cell viability, compound alone", "setting": "[3]", "result": "no reduction in cell viability"},
      {"measurement": "toxicity / cell viability, compound alone", "setting": "[3]; listed as c #3", "result": "caused no toxicity"},
      {"measurement": "sensitization effect to cisplatin", "setting": "[3]", "result": "approximately twofold sensitization effect"},
      {"measurement": "sensitization to doxorubicin", "setting": "[3]", "result": "sensitized"},
      {"measurement": "cell survival with cisplatin plus inhibitor", "setting": "[3]", "result": "reduction in cell survival"},
      {"measurement": "stabilization of folded MAD2L2 (in words)", "setting": "[4]; listed as c #3", "result": "stabilize the folded MAD2L2 protein; also recorded: stronger binding affinity to MAD2L2 than c #2"}
    ]}
  ]
}
